Data on 7 compounds can be found in ChEMBL document CHEMBL1201862, “PubChem BioAssay data set” (2004).

Structures are written as SMILES. Calls of active or inactive are those of the source.

Assay [1] addresses Intestinal-type alkaline phosphatase (Homo sapiens, UniProt P09923). Put plainly: Dose Response confirmation of uHTS hits from a small molecule inhibitors of human intestinal alkaline phosphatase via a luminescent assay. [Related pubchem assays (depositor defined):AID2544, AID2574]. It is filed as functional.
In assay [2] the target is T1, Voltage-dependent T-type calcium channel subunit alpha-1H (Homo sapiens, UniProt O95180). Put plainly: Inhibitors of T-Type Calcium Channels. [Related pubchem assays (depositor defined):AID449739, AID463087, AID489005, AID493041, AID504579, AID504584, AID504619, AID504628]. It is filed as functional.
The target of assay [3] is T1, Voltage-dependent T-type calcium channel subunit alpha-1H. It is filed as functional.
Assay [4] concerns the target T2, Mannose-6-phosphate isomerase (Homo sapiens, UniProt P34949).
T2 sequence (P34949 whole entry): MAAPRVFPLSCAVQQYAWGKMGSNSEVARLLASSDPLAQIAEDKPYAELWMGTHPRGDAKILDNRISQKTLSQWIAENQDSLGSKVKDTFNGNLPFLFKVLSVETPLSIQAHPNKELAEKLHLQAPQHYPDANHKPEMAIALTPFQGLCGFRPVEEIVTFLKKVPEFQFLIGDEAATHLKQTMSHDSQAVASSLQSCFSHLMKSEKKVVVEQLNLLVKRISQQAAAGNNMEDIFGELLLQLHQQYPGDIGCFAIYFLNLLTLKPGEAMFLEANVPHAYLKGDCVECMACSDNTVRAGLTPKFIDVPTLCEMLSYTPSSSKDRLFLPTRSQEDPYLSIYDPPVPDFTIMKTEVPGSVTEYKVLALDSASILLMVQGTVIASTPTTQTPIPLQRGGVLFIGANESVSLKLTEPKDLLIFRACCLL
Put plainly: PMI enzyme inhibitors, confirmation, biochemical, fluorescence intensity (AID 1535).

Another assay deals with Phosphomannomutase 2 (Homo sapiens, UniProt O15305). Put plainly: Counter screen SAR assay for PMM2 inhibitors via a fluorescence intensity assay. [Related pubchem assays (depositor defined):AID1545, AID1574]. (In general: The purpose of a counterscreen is to sort out artefacts and off-target activity.)
Assay [5] deals with T3, Replicative DNA helicase DnaB (Mycobacterium tuberculosis, UniProt P9WMR3).
T3 sequence (P9WMR3 whole entry): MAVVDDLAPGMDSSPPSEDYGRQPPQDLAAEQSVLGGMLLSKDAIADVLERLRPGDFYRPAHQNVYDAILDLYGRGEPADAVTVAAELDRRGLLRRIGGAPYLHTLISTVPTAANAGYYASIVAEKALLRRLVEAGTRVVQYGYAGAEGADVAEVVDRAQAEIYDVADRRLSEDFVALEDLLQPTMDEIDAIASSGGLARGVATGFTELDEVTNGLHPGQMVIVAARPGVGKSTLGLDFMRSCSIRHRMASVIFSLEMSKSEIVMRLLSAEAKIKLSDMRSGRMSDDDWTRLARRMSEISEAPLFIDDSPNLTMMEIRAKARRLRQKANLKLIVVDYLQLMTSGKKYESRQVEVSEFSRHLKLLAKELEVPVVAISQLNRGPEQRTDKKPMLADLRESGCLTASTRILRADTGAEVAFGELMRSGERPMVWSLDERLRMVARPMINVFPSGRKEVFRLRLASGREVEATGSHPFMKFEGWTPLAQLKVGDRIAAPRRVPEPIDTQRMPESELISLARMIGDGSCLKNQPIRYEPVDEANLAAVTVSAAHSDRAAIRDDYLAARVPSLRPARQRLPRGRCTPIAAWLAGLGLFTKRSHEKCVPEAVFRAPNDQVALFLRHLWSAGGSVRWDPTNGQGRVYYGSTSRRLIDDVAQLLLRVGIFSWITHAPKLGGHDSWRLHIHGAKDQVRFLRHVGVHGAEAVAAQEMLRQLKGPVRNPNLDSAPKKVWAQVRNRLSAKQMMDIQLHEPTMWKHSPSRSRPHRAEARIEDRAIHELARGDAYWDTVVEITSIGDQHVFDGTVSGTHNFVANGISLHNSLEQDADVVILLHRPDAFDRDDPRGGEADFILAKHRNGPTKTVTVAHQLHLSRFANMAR
Put plainly: DnaB intein splicing inhibitors, dose response, biochemical, cell-free fluorescence (AID 449749). The format is functional.

Assay [6] is described as follows: Vero E6 cell cytotoxicity, dose response, cytotoxicity control for non-replicating M. tuberculosis project, secondary assay (AID 492998). It is filed as functional, VeroE6. As to conditions: Vero C1008.
Assay [7] is described as follows: THP-1 cell cytotoxicity, dose response, cytotoxicity control for non-replicating M. tuberculosis project (AID 489025). It is filed as functional.
Assay [8] can be described thus: Luminescence Cell-Based Dose Response HTS to Identify Activators of Luciferase Translation or Activity in H4 […] Cells. [Related pubchem assays: 1829 (Project Summary), 1814 (Primary HTS)]. The format is functional.
The nature of another assay: cells. The format is functional.
The target in assay [9] is T4, Polyadenylate-binding protein 1 (Homo sapiens, UniProt P11940). Put plainly: PABP1 MLLE–PAM2 interaction inhibitors, dose response, miRNA deadenylation inhibitor project, biochemical, fluorescence polarization, Cy5-PAM2 peptide, secondary (AID 602260). As to conditions: read-out: IC50_Mean. The format is functional.
A further assay deals with Genome polyprotein (dengue virus type 2, UniProt P29990). Put plainly: Dengue-2 NS5 methyltransferase inhibitors, primary screen, biochemical, confirmation dose response (AID 588689). It is filed as functional.
Assay [10] in a line: HepG2 cell cytotoxicity, dose response, cytotoxicity control for non-replicating M. tuberculosis project (AID 489018). The format is functional. Conditions: Mycobacterium tuberculosis.
For another assay, the system named is Vero. Put plainly: Vero cell cytotoxicity, cytotoxicity control for flavivirus capping enzyme inhibitors (AID 588742). The format is functional. As to conditions: Chlorocebus sabaeus.
The target of another assay is T5, Protein RecA (Mycobacterium tuberculosis, UniProt P9WHJ3).
T5 sequence (P9WHJ3 whole entry): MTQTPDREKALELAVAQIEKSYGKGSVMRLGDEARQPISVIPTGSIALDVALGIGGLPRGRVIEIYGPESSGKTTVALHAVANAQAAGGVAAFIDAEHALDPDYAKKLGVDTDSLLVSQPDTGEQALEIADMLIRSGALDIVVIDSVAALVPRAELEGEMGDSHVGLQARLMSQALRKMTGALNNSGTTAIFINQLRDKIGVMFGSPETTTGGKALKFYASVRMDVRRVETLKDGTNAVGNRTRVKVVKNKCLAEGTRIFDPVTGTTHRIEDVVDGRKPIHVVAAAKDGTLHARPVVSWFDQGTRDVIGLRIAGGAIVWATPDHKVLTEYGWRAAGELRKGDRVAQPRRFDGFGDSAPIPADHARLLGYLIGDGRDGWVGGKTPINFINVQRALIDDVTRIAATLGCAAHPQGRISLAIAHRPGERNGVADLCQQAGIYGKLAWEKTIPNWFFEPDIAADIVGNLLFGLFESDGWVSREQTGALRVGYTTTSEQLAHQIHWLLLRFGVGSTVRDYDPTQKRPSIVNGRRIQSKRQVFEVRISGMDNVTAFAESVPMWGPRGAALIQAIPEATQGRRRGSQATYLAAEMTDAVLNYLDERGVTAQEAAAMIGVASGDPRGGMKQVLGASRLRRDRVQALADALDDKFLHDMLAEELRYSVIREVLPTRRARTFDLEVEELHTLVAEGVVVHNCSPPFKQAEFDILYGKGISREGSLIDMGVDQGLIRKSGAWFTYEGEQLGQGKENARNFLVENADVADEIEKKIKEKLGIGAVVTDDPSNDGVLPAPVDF
Put plainly: Fluorescence Cell-Free Homogeneous Dose Retest to Identify Inhibitors of RecA-Intein Splicing Activity. [Related pubchem assays (depositor defined):AID2097, AID2223, AID489010, AID492950]. It is filed as functional.

In assay [11] the target is T4, Polyadenylate-binding protein 1. Put plainly: PABP1 MLLE–PAM2 binding inhibitor potency, dose response, biochemical, fluorescence polarization, FITC-PAM2 peptide (AID 602259). Conditions: read-out: IC50_Mean. The format is functional. (In general: In fluorescence polarisation assays a small probe gives low polarisation when free and higher when bound to something large.)

Assay [12] can be described thus: Luminescence Cell-Based Dose Confirmation HTS to Identify Activators of 5'UTR Stem-Loop Driven Alpha-Synuclein mRNA Translation in H4 Neuroglioblastoma Cells. [Related pubchem assays: 1829 (Project Summary), 1814 (Primary HTS)]. It is filed as functional.
Assay [13] is described as follows: microbe, parasite or virus in culture. It is filed as functional. As to conditions: Mycobacterium tuberculosis.
The test system of a further assay is H4. Put plainly: Luminescence Cell-Based Dose Response HTS to Identify Activators of 5'UTR Stem-Loop Driven Prion Protein mRNA Translation in H4 Neuroglioblastoma Cells. [Related pubchem assays: 1829 (Project Summary), 1814 (Primary HTS)]. As to conditions: Homo sapiens. The format is functional.
A further assay addresses Beta-galactosidase (Escherichia coli, UniProt Q8VNN2). The format is functional.
For assay [14], the target named is T6, Kappa-type opioid receptor (Homo sapiens, UniProt P41145). The format is functional.
Assay [15] addresses T7, Heat shock factor protein 1 (Mus musculus, UniProt P38532).
T7 sequence (P38532 whole entry): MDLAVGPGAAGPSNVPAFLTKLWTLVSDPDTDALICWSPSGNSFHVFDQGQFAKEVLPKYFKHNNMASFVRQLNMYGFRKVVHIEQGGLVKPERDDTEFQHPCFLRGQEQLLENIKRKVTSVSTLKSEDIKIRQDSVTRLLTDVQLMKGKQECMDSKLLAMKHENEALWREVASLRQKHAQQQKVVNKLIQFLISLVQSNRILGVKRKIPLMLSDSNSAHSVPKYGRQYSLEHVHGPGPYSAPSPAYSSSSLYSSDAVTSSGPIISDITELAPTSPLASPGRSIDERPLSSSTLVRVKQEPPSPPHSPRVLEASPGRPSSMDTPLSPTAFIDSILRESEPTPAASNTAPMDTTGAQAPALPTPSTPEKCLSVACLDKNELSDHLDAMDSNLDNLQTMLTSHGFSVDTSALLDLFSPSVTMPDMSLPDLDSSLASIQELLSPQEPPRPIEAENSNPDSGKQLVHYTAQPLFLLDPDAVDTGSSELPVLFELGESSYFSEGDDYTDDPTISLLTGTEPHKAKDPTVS
Put plainly: inhibition of MG132-induced HSE-luciferase signal, confirmation, cell-based, NIH3T3, luminescence, dose retest (AID 2382).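 Also: NIH3T3 fibroblasts with HSF1-driven luciferase reporter stressed by proteasome inhibitor MG132; luminescence from HSF1-driven luciferase expression after 8 hours of MG132 stress.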 It is filed as functional.

Assay [16] concerns the target T6, Kappa-type opioid receptor. It is filed as functional. The source holds these as a separate data set.
Assay [17] has as its target T8, Calpain-2 catalytic subunit (Sus scrofa, UniProt P43367).
T8 sequence (P43367 whole entry): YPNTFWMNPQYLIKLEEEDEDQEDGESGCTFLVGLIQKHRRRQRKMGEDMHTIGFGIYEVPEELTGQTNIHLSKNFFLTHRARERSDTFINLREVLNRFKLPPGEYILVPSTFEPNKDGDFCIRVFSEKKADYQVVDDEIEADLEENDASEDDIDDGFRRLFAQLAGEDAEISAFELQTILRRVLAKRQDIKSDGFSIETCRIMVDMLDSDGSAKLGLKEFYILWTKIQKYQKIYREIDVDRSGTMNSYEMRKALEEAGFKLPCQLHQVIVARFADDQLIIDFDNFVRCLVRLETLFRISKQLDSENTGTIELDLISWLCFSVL
Put plainly: pig calpain II inhibitor potency, dose response, biochemical, fluorogenic peptide substrate (AID 1420). The format is functional.

Assay [18] deals with G-protein coupled receptor 55 (Homo sapiens, UniProt Q9Y2T6). Put plainly: GPR55 antagonists blocking LPI-driven arrestin recruitment, primary screen, imaging, U2OS, beta-arrestin-GFP, LPI agonist (AID 2013).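 Also: antagonist potency measured as reduced agonist-driven arrestin aggregation.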 It is filed as functional. (In general: Activated receptors often draw arrestin, which recruitment assays turn into a signal.)
Chain of G-protein coupled receptor 55 (Q9Y2T6 whole entry): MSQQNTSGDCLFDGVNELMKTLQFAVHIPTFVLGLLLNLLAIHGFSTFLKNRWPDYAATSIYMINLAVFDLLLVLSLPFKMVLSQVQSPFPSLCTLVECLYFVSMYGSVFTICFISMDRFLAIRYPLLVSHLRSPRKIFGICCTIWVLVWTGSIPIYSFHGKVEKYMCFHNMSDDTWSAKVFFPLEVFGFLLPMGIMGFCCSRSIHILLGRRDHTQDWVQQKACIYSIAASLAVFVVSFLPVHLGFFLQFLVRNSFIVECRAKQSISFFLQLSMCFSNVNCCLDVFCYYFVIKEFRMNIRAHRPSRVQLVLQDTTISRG

T1 sequence (O95180 whole entry): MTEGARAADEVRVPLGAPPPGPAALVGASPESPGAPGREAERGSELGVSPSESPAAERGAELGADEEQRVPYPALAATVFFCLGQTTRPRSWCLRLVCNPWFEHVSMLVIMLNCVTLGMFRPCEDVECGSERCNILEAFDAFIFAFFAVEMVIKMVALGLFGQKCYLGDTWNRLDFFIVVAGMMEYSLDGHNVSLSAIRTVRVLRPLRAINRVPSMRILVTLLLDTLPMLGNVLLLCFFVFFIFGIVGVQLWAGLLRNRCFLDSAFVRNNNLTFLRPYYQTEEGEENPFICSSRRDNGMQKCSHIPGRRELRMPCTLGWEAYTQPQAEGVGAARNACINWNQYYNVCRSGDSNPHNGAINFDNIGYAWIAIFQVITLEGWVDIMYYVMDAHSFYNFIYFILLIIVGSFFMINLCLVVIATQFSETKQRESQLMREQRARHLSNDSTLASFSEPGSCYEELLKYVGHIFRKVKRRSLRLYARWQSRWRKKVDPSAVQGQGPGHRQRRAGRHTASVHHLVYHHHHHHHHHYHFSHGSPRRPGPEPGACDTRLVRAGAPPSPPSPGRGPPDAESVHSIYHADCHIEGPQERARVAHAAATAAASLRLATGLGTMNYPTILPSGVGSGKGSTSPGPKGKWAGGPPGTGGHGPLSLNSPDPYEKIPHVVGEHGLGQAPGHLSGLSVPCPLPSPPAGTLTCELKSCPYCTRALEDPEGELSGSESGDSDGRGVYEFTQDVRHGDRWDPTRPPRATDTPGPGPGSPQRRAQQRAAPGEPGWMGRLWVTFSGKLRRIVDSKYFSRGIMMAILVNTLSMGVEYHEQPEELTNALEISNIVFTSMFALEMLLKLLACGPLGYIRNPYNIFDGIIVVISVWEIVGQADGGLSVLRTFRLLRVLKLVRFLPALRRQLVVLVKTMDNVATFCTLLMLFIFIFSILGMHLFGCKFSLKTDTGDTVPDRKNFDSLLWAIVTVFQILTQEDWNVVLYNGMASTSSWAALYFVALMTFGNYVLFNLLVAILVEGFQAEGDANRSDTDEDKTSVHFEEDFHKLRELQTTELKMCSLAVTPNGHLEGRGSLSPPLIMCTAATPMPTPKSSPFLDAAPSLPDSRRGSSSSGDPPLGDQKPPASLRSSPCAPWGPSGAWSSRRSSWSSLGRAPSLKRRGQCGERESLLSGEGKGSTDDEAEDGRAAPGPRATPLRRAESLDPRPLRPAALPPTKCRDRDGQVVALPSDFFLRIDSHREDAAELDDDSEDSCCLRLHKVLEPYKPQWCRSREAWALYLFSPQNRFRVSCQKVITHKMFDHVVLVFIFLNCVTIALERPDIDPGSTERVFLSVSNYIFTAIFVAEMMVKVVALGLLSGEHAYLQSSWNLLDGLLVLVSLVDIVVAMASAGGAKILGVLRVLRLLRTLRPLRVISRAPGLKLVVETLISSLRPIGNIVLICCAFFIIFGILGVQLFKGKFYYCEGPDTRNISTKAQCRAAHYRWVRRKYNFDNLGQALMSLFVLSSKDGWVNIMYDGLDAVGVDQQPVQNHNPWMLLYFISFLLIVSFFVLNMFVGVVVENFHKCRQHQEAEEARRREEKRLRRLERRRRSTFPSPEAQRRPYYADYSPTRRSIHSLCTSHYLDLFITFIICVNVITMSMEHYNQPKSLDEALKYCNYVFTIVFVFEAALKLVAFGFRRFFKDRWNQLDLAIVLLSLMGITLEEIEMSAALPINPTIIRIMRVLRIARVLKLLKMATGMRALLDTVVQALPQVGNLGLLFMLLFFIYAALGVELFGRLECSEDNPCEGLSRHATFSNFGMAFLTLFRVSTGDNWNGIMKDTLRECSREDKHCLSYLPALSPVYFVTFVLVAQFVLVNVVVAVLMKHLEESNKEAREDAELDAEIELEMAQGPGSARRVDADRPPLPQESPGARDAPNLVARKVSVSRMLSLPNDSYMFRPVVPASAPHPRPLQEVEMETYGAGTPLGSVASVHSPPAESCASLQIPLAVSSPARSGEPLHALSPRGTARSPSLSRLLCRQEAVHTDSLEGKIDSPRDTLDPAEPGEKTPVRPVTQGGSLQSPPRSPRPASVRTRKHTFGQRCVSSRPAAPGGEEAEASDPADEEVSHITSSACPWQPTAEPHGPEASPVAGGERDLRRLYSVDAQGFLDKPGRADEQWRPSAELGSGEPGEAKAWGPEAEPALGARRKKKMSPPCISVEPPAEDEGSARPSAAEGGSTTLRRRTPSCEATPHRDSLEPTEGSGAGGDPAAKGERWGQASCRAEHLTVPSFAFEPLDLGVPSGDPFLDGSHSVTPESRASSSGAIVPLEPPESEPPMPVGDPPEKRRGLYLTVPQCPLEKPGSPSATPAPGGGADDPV
T6 sequence (P41145 whole entry): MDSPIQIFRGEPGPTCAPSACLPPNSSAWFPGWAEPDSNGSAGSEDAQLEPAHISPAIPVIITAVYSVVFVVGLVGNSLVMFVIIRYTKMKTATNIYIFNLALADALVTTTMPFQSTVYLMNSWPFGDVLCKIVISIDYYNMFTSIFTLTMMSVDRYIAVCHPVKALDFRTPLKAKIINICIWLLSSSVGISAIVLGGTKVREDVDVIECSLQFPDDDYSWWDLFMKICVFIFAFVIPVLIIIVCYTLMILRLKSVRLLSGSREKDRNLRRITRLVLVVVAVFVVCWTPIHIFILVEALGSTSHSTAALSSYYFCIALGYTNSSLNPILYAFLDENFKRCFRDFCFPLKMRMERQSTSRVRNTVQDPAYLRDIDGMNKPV
T4 sequence (P11940 whole entry): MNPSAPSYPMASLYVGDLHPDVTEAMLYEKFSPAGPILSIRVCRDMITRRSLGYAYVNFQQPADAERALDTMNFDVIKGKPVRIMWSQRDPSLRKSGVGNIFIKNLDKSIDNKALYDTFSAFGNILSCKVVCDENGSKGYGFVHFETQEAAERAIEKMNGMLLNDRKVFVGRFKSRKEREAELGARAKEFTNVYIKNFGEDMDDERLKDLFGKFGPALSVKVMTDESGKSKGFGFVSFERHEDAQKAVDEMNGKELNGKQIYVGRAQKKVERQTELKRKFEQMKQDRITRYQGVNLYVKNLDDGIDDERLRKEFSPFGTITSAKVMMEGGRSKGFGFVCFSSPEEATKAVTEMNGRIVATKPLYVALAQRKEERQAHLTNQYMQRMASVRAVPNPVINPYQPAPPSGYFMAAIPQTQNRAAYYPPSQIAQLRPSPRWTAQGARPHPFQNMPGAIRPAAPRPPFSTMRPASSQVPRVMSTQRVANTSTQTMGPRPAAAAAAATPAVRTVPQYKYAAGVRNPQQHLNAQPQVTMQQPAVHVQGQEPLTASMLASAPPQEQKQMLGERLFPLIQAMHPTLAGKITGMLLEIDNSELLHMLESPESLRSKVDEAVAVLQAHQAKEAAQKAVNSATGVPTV
Chain of Phosphomannomutase 2 (O15305 whole entry): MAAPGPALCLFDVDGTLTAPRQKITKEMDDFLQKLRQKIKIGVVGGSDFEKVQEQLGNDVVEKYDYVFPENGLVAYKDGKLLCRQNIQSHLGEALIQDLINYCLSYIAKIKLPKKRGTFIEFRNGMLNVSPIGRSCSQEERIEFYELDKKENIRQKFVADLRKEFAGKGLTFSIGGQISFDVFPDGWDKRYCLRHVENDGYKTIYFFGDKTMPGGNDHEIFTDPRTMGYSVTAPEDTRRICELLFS
Chain of Intestinal-type alkaline phosphatase (P09923 whole entry): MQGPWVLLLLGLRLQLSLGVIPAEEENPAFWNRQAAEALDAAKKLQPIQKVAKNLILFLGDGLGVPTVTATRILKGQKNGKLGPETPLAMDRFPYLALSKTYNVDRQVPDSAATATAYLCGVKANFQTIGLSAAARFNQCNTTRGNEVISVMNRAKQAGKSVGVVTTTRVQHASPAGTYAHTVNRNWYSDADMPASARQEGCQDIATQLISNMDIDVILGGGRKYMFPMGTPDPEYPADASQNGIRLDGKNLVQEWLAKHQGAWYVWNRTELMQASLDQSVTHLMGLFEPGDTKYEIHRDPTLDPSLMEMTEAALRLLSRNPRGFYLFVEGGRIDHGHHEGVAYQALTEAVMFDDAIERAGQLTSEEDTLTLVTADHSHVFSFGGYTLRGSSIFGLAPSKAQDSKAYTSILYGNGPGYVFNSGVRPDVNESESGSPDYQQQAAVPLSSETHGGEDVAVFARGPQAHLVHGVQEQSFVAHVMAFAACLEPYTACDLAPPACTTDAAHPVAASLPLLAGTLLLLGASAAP

Regarding `CC(/C=N/NC(=O)CCn1nnc2ccccc21)=C\c1ccccc1`, the IC50 in assay [1] is > 100 µM (inactive).
A word on the EC50: it is the concentration that produces a half-maximal response. On to `Cc1ccc(Cl)cc1N1CCN(C(=O)C2(S(=O)(=O)c3ccc(Cl)cc3)CC2)CC1`, for which the EC50 was 5.26 µM (active) in [2] and 928 nM (active) in assay [3].
On to `COCCNP(=O)(c1ccccc1)c1nc2ccccc2s1` (stereo not drawn), for which the IC50 in assay [4] is > 50 µM (inactive); at Phosphomannomutase 2, > 100 µM (inactive).
For orientation: AC50 means the concentration at which the activity in the assay is half-maximal. `O=[N+]([O-])c1cc([N+](=O)[O-])c2cc3ccccc3nc2c1`: the AC50 in [5] is > 380 µM (inconclusive). For the same compound, the CC50 in assay [6] was 12.7 µM (active); in assay [7], 5.67 µM (active); in [10], 14 µM (active); in the assay with Vero, 10.1 µM (active); in assay [13] it was 18.9 µM (active). Besides, the EC50 in assay [8] is > 120 µM (not active); at Protein RecA, 1.17 µM (active); in assay [12] it was > 120 µM (not active); in the assay with H4, 32 µM (active). Also, the IC50 is 390 nM (active) in “cells”, > 66 µM (inactive) in assay [9], 6.37 µM (active) on Genome polyprotein and > 66 µM (inactive) in [11].
In the case of `O=C(N/N=C/c1ccccn1)c1ccc([N+](=O)[O-])cc1`, the EC50 at Beta-galactosidase was > 31.5 µM (inactive); in assay [15], > 195 µM (not active). Also, the values for the IC50 in assay [14] and in assay [16] were above 32 µM and 14.7 µM (active), respectively.
Take `O=C(CCCCCCN1C(=O)c2ccccc2C1=O)N1CCC(c2ccccc2)C1` (stereo not drawn): the IC50 in [17] was 7.71 µM (active). For the same compound, the EC50 in assay [2] was 1.81 µM (active); in assay [15], > 195 µM (not active); in assay [3], 624 nM (active).
As for `O=C1/C(=C/c2ccncc2)SC(=S)N1C1CCS(=O)(=O)C1` (stereo not drawn), the IC50 in [18] is 5.49 µM (active).
